As usually defined, the logP is the decadic logarithm of the partition coefficient of the neutral form, usually between octanol and water. A higher logP goes with a more lipophilic compound.

This data set is described as follows: method code SF-AS, from DOI: 10.1016/0223-5234(92)90004-k.

For the compound `COc1ccc(-c2nc3ncc(N)cc3[nH]2)c(OC)c1`, the logP worked out at 1.62. The same measure for `COc1cc(NS(C)(=O)=O)ccc1-c1cn2cccnc2n1`: 0.72; for `COc1ccc(-c2cn3cccnc3n2)c(OC)c1`: 1.94; for `COc1cc(SC)ccc1-c1cn2cccnc2n1`: 2.44. The same measure for `COc1cc(C(N)=O)ccc1-c1nc2cnccc2[nH]1`: 1.18; for `COc1cc(OS(C)(=O)=O)ccc1-c1cn2cccnc2n1`: 1.05.

For the compound `COc1cc(S(C)=O)ccc1-c1nc2ncc(N)cc2[nH]1` (stereo not given), the logP worked out at 0.33. The compound `COc1cc(C(N)=O)ccc1-c1cn2cccnc2n1` returned a logP of 0.7. On to `COc1ccc(-c2nc3ncccc3[nH]2)c(OC)c1`, for which the logP stood at 2.56. In the case of `COc1ccc(-c2cn3cc(N)cnc3n2)c(OC)c1`, the logP was 1.68.

The values are drawn from the SangsterLogP compilation.
